{"source": "patent US5520931A", "about": "(Gacell Laboratories AB, priority 1992, dated 1996)", "origin": "cited, not measured here", "tested_on": "cancer pain", "details": "severe pain, WHO programme"}
{"smiles": "CN1CC[C@]23c4c5ccc(O)c4O[C@H]2[C@@H](O)C=C[C@H]3[C@H]1C5", "note": "[morphine]", "values": [{"measurement": "efficacy and acceptability in advanced cancer pain", "value": "both efficacious and acceptable"}]}
